Assay results published in patent US12428408B2, “Fused heterocyclic mescaline derivatives” (Enveric Biosciences Canada Inc., priority 2022, dated 2025).
Read-outs that look alike come from different tables or passages of the source.

Key:
[1] = target: T1, 5-HT1A receptor (Homo sapiens, UniProt P08908); experiment: 5-HT1A receptor radioligand competition assay (SPA); format: binding
T1 construct: purchased Perkin Elmer 6110501400UA
T1 sequence (P08908 1-422): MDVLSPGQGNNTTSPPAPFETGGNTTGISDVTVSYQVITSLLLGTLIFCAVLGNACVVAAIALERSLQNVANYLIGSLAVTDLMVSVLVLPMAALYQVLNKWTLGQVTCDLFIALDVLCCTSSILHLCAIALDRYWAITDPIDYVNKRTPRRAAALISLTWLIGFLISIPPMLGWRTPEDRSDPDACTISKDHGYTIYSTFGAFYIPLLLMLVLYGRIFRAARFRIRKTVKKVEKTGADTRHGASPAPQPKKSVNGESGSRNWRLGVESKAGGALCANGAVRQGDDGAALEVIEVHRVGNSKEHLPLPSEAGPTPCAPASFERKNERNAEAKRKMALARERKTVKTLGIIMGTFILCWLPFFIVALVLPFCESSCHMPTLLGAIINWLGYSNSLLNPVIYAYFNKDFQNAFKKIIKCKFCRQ

[2] = target: T2, 5-HT2B (h) (Homo sapiens, UniProt P41595); experiment: Competition assay to measure binding affinity at 5-HT2B receptor; conditions: test ligand 10 μM; [3H]mesulergine 2 nM
T2 construct: host or cells: CHO cells
T2 sequence (P41595 whole entry): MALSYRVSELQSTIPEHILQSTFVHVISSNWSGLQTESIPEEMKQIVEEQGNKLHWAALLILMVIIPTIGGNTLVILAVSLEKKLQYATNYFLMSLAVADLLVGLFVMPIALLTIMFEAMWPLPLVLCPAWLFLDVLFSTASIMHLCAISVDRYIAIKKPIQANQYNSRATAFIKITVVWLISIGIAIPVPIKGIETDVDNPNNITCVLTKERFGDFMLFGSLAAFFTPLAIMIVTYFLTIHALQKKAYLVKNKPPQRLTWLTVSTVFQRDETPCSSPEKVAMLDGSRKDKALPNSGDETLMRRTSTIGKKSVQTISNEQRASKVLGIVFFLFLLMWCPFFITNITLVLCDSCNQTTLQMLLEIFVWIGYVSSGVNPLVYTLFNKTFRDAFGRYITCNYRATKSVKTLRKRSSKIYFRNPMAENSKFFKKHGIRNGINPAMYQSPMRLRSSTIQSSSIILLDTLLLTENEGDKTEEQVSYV

[3] = target: T3, 5-HT7 (h) (Homo sapiens, UniProt P34969); experiment: Competition assay to measure binding affinity at 5-HT7 receptor; conditions: test ligand 10 μM; [3H]LSD 4 nM
T3 construct: host or cells: HEK-293 cells
T3 sequence (P34969 whole entry): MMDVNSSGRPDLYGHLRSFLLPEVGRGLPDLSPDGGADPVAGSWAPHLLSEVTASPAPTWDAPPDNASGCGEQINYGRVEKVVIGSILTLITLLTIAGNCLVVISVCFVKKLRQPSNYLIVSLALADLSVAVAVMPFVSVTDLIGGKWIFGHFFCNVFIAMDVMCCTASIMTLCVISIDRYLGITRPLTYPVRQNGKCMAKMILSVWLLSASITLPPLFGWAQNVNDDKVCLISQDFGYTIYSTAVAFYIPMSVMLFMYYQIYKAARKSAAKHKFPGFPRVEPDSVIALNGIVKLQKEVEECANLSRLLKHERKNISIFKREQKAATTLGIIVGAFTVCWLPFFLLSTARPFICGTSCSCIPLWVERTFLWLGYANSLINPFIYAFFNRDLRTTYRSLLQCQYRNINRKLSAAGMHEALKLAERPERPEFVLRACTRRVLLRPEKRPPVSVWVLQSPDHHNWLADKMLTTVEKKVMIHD

[4] = target: T4, MT1 (ML1A) (h) (Homo sapiens, UniProt P48039); experiment: Competition assay to measure binding affinity at MT1 receptor; conditions: test ligand 10 μM; [125I]2-iodomelatonin 0.01 nM
T4 construct: host or cells: CHO cells
T4 sequence (P48039 whole entry): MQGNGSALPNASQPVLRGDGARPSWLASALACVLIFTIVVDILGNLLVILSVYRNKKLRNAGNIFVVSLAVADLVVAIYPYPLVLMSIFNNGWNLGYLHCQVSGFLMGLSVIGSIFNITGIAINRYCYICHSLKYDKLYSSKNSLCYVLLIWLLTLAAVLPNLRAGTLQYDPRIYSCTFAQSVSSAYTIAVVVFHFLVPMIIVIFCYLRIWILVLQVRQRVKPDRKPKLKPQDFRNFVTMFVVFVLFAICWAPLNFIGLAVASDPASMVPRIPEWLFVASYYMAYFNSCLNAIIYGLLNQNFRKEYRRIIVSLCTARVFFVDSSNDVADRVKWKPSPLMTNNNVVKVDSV

[5] = target: T5, alpha2A (h) (Homo sapiens, UniProt P08913); experiment: Competition assay to measure binding affinity at alpha2A receptor; conditions: test ligand 10 μM, [3H]RX 821002 1 nM; for inhibition at 10 µM: read-out: α-2A, percent of control-specific binding
T5 construct: host or cells: CHO cells
T5 sequence (P08913 1-465): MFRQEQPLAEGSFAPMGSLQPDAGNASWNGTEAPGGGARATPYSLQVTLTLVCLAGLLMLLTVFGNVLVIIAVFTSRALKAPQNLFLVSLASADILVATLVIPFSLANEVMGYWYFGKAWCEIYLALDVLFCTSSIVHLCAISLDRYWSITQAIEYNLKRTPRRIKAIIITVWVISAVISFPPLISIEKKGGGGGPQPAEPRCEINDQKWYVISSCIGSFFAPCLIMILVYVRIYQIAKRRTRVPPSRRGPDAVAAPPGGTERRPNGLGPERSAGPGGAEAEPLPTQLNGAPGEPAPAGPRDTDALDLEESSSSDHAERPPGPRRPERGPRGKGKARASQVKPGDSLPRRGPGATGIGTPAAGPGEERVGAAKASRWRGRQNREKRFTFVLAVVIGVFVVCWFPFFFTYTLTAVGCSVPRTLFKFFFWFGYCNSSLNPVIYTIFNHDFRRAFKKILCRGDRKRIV

[6] = target: T6, 5-HT1D (r) (Rattus norvegicus, UniProt P28565); experiment: Competition assay to measure binding affinity at 5-HT1D receptor; conditions: test ligand 10 μM; [3H]serotonin 1 nM
T6 construct: host or cells: CHO cells
T6 sequence (P28565 whole entry): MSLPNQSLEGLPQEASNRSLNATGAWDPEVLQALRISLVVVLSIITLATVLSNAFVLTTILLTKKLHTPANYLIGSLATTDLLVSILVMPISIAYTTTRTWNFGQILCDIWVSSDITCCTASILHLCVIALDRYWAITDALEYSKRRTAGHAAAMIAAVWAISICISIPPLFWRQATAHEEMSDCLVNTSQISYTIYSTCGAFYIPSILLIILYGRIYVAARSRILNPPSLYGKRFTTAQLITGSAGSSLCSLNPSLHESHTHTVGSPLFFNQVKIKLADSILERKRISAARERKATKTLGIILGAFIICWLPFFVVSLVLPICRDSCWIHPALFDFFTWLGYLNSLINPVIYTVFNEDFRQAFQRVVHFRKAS

[7] = target: T7, human serotonin transporter (SERT) (Homo sapiens, UniProt P31645); experiment: biochemical; format: binding
T7 construct: purchased PerkinElmer RBHSTM400UA
T7 sequence (P31645 whole entry): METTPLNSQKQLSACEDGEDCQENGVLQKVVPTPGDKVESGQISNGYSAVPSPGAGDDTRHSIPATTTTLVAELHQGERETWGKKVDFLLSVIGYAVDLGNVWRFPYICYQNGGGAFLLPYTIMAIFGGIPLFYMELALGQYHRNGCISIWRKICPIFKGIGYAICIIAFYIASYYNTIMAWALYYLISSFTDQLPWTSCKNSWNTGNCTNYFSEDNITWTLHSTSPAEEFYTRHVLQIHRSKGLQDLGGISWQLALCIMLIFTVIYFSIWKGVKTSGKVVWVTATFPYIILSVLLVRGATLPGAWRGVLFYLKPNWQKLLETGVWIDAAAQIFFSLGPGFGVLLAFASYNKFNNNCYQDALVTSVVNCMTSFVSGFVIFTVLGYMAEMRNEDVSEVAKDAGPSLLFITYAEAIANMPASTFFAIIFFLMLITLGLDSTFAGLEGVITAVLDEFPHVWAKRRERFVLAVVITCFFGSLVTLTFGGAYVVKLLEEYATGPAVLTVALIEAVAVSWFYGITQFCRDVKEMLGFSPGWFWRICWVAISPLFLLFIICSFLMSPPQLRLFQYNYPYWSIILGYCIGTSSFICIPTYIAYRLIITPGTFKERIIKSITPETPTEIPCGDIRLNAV

[8] = target: T8, DAT (h) (Homo sapiens, UniProt Q01959); experiment: Competition assay to measure binding affinity at dopamine transporter (DAT); conditions: test ligand 10 μM; [3H]BTCP 4 nM
T8 construct: host or cells: CHO cells
T8 sequence (Q01959 whole entry): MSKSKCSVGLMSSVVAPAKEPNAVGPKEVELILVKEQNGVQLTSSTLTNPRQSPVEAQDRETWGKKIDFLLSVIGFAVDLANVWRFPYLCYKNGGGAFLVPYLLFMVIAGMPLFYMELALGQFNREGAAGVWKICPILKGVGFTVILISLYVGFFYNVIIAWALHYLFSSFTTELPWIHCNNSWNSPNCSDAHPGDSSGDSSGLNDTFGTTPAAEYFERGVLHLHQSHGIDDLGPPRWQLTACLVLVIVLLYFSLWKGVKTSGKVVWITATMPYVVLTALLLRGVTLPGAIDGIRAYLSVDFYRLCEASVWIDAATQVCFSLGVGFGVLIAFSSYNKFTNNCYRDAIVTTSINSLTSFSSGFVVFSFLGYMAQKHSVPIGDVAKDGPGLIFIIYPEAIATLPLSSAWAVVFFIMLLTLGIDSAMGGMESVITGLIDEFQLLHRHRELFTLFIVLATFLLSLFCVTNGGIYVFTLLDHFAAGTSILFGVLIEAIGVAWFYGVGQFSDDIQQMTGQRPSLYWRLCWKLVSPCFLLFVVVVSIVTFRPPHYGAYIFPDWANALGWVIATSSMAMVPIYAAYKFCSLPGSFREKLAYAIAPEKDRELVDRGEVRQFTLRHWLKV

[9] = target: 5-HT2A receptor (Homo sapiens, UniProt P28223); experiment: 5-HT2A receptor radioligand competition assay (SPA)
Chain of 5-HT2A receptor (P28223 whole entry): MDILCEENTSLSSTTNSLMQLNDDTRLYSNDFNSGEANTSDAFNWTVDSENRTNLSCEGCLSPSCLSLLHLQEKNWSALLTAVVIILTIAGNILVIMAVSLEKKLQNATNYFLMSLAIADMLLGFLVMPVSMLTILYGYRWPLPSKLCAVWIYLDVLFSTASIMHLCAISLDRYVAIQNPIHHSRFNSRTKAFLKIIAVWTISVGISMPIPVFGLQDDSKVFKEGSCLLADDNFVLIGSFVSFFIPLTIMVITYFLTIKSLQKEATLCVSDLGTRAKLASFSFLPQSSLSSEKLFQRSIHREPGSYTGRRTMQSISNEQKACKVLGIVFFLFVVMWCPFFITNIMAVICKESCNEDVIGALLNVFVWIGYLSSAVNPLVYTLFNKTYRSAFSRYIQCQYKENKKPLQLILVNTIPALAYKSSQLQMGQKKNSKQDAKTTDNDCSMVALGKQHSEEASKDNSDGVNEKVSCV

[10] = target: T9, NET (h) (Homo sapiens, UniProt P23975); experiment: Competition assay to measure binding affinity at norepinephrine transporter (NET); conditions: test ligand 10 μM; [3H]nisoxetine 1 nM
T9 construct: host or cells: CHO cells

[11] = target: T10, 5-HT2C (h) (Homo sapiens, UniProt P28335); experiment: Competition assay to measure binding affinity at 5-HT2C receptor; conditions: test ligand 10 μM; [125I](±)DOI 0.1 nM
T10 construct: host or cells: HEK-293 cells
T10 sequence (P28335 33-458): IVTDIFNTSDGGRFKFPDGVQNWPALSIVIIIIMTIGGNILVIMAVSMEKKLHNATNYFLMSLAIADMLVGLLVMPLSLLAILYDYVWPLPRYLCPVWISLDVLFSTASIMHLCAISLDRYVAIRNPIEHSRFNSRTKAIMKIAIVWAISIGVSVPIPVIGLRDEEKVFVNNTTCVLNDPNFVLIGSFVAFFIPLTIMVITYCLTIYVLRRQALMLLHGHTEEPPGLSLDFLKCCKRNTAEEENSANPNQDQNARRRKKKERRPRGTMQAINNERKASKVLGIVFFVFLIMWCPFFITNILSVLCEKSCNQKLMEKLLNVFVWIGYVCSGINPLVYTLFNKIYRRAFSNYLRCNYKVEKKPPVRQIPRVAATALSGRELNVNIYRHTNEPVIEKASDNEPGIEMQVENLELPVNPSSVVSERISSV

[12] = target: T1, 5-HT1A receptor; experiment: Functional 5-HT1A receptor cAMP assay in CHO-K1/5-HT1A/Gα15 cells; format: cell-based; conditions: for 5-HT1A receptor engagement (change in cAMP levels), in words: +5-HT1A cells, 4 μM forskolin, FIGS. 37B-37H
[13] = target: T11, D2 (h) (Homo sapiens, UniProt P14416); experiment: Competition assay to measure binding affinity at D2L receptor; conditions: test ligand 10 μM; [3H]methylspiperone 0.3 nM
T11 construct: host or cells: HEK-293 cells
T11 sequence (P14416 whole entry): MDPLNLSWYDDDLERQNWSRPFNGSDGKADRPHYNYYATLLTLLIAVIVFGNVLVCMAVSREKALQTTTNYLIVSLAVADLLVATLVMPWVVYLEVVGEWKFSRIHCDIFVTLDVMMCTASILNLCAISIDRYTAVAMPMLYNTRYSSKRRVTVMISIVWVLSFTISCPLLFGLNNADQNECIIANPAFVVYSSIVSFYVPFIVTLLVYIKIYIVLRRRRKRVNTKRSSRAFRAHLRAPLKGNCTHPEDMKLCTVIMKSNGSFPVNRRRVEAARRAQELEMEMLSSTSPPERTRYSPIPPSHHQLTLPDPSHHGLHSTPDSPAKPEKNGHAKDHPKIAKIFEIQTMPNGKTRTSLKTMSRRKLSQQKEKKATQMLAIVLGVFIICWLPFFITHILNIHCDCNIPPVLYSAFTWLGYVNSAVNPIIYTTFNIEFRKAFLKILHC

[14] = target: T12, 5-HT1B (h) (Homo sapiens, UniProt P28222); experiment: Competition assay to measure binding affinity at 5-HT1B receptor; conditions: test ligand 10 μM; [3H]GR125743 1 nM
T12 construct: host or cells: Chem-1 (RBL) cells
T12 sequence (P28222 whole entry): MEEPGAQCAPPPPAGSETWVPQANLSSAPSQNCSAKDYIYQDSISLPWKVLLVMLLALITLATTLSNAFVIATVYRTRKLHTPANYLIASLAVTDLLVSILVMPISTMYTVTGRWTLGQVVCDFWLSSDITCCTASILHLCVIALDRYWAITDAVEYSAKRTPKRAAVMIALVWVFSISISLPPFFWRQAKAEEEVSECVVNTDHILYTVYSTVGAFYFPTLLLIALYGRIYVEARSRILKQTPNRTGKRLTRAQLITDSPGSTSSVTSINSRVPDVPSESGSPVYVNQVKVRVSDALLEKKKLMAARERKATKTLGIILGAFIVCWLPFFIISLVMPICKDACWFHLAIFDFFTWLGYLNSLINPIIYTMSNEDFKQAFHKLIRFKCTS

[15] = target: T13, D3 (h) (Homo sapiens, UniProt P35462); experiment: Competition assay to measure binding affinity at D3 receptor; conditions: test ligand 10 μM; [3H]methylspiperone […]
T13 construct: host or cells: CHO cells
T13 sequence (P35462 whole entry): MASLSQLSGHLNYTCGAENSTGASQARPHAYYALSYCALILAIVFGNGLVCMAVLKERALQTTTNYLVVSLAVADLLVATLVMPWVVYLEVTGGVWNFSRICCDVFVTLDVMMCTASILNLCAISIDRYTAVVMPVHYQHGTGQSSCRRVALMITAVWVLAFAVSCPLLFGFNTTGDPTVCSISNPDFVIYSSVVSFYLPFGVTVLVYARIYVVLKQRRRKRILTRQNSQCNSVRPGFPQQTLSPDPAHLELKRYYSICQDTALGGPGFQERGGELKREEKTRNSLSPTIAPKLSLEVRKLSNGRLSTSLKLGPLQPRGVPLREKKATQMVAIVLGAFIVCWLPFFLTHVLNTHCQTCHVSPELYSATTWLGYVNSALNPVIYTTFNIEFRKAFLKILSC

[16] = competition with 0.5 nM 8-hydroxy-DPAT [3H], test compound 3 nM to 1 mM, read-out: 5-HT1A, Ki

## OCCNCCc1cc2c(cc1Br)OCO2 [A(XXX)]
[1]; [16]
  Ki: 0.295 µM
[2]
  HT2B, percent of control-specific binding: 54%
[3]
  HT7, percent of control-specific binding: 61%
[4]
  MT1, percent of control-specific binding: 0%
[5]
  inhibition at 10 µM: 6%
[6]
  HT1D, percent of control-specific binding: 39%
[7]
  Ki: 84.3 µM
[8]
  DAT, percent of control-specific binding: 0%
[9]
  Ki: 11.7 µM
[10]
  NET, percent of control-specific binding: 6%
[11]
  HT2C, percent of control-specific binding: 57%
[12]
  EC50: 11.7 µM
[13]
  D2, percent of control-specific binding: 4%
[14]
  HT1B, percent of control-specific binding: 0%
[15]
  D3, percent of control-specific binding: 30%

## NCCc1c[nH]c2ccc(O)cc12 [serotonin, reference compound]
[4]
  MT1, percent of control-specific binding: 7%
[5]
  inhibition at 10 µM: 18%
[6]
  HT1D, percent of control-specific binding: 101%
[8]
  DAT, percent of control-specific binding: 8%
[10]
  NET, percent of control-specific binding: −3%
[12]
  5-HT1A receptor engagement (change in cAMP levels), in words: reduction in cAMP levels
[13]
  D2, percent of control-specific binding: 15%
[14]
  HT1B, percent of control-specific binding: 97%
[15]
  D3, percent of control-specific binding: 73%

## Brc1cc2c(cc1CCN1CCCC1)OCO2 [A(XXV)]
[1]; [16]
  Ki: 0.0635 µM
[2]
  HT2B, percent of control-specific binding: 76%
[3]
  HT7, percent of control-specific binding: 71%
[4]
  MT1, percent of control-specific binding: 1%
[5]
  inhibition at 10 µM: 61%
[6]
  HT1D, percent of control-specific binding: 30%
[7]
  Ki: 10.9 µM
[8]
  DAT, percent of control-specific binding: 11%
[9]
  Ki: 7.65 µM
[10]
  NET, percent of control-specific binding: 28%
[11]
  HT2C, percent of control-specific binding: 87%
[12]
  EC50: 0.342 µM
[13]
  D2, percent of control-specific binding: 21%
[14]
  HT1B, percent of control-specific binding: 0%
[15]
  D3, percent of control-specific binding: 70%

## CN(C)CCc1c[nH]c2cccc(O)c12 [psilocin]
[12]
  5-HT1A receptor engagement (change in cAMP levels), in words: reduction in cAMP levels

## COc1cc(CCN)c(OC)cc1Br [2C-B, reference compound]
[1]; [16]
  Ki: 0.2 µM
[2]
  HT2B, percent of control-specific binding: 99%
[3]
  HT7, percent of control-specific binding: 88%
[4]
  MT1, percent of control-specific binding: 86%
[5]
  α-2A, percent of control-specific binding: 88%
[6]
  HT1D, percent of control-specific binding: 100%
[7]
  SERT binding, binding curve in words: bind SERT to varying degrees
[7]; read-out: SERT, Ki
  Ki: 11.4 µM
[8]
  DAT, percent of control-specific binding: 5%
[9]; read-out: 5-HT2A, Ki, competition with 1 nM [3H]ketanserin, test compound 3 nM to 1 mM
  Ki: 0.414 µM
[10]
  NET, percent of control-specific binding: 13%
[12]
  5-HT1A receptor engagement (change in cAMP levels), in words: reduction in cAMP levels
[12]; reduction of cAMP in +5-HT1A cells stimulated with 4 μM forskolin, 20 min, read-out: 5-HT1A, EC50
  EC50: 5.95 µM
[13]
  D2, percent of control-specific binding: 42%
[14]
  HT1B, percent of control-specific binding: 77%
[15]
  D3, percent of control-specific binding: 43%

## COc1cc(CCN)cc(OC)c1OC [mescaline, 3,4,5 trimethoxyphenethylamine]
[2]
  HT2B, percent of control-specific binding: 80%
[4]
  MT1, percent of control-specific binding: 6%
[5]
  inhibition at 10 µM: 57%
[6]
  HT1D, percent of control-specific binding: 70%
[7]
  Ki: 406 µM
  SERT binding, binding curve in words: SERT binding at higher ligand concentrations
[8]
  DAT, percent of control-specific binding: −1%
[10]
  NET, percent of control-specific binding: −9%
[11]
  HT2C, percent of control-specific binding: 95%
[12]
  5-HT1A receptor engagement (change in cAMP levels), in words: no
[13]
  D2, percent of control-specific binding: 3%
[14]
  HT1B, percent of control-specific binding: 11%
[15]
  D3, percent of control-specific binding: −13%

## CC(Cc1ccc2c(c1)OCCO2)NCc1cc2c(cc1Br)OCCO2 (stereo not shown) [A(XI)]
[1]
  Ki: 0.507 µM
[2]
  HT2B, percent of control-specific binding: 94%
[3]
  HT7, percent of control-specific binding: 62%
[4]
  MT1, percent of control-specific binding: 15%
[5]
  inhibition at 10 µM: 92%
[6]
  HT1D, percent of control-specific binding: 31%
[7]
  Ki: 0.191 µM
[8]
  DAT, percent of control-specific binding: 47%
[9]
  Ki: 7 µM
[10]
  NET, percent of control-specific binding: 64%
[11]
  HT2C, percent of control-specific binding: 63%
[13]
  D2, percent of control-specific binding: 40%
[14]
  HT1B, percent of control-specific binding: 7%
[15]
  D3, percent of control-specific binding: 36%

## CC(Cc1ccc2c(c1)OCCO2)NC1CCC1 (stereo not shown) [A(XVII)]
[1]
  Ki: 23.3 µM
[2]
  HT2B, percent of control-specific binding: 47%
[3]
  HT7, percent of control-specific binding: 24%
[4]
  MT1, percent of control-specific binding: 1%
[5]
  inhibition at 10 µM: 64%
[6]
  HT1D, percent of control-specific binding: 0%
[7]
  Ki: 1.71 µM
[8]
  DAT, percent of control-specific binding: 84%
[9]
  Ki: 188 µM
[10]
  NET, percent of control-specific binding: 18%
[11]
  HT2C, percent of control-specific binding: 20%
[13]
  D2, percent of control-specific binding: 2%
[14]
  HT1B, percent of control-specific binding: 0%
[15]
  D3, percent of control-specific binding: 19%
